Drawing on patent US20210122730A1, “GLUCOCORTICOID RECEPTOR MODULATORS” (ORIC Pharmaceuticals, Inc., priority 2017, published 2021), this text covers IC50 for 21 compounds.

pIC50: −log10 of the molar value. Where only a bound is given, the exact number is not on record here.

In this assay the target is T1, GR (Homo sapiens, UniProt P04150).
T1 construct: expressed in transfected cells; host or cells: CHO-K1
T1 sequence (P04150 1-777): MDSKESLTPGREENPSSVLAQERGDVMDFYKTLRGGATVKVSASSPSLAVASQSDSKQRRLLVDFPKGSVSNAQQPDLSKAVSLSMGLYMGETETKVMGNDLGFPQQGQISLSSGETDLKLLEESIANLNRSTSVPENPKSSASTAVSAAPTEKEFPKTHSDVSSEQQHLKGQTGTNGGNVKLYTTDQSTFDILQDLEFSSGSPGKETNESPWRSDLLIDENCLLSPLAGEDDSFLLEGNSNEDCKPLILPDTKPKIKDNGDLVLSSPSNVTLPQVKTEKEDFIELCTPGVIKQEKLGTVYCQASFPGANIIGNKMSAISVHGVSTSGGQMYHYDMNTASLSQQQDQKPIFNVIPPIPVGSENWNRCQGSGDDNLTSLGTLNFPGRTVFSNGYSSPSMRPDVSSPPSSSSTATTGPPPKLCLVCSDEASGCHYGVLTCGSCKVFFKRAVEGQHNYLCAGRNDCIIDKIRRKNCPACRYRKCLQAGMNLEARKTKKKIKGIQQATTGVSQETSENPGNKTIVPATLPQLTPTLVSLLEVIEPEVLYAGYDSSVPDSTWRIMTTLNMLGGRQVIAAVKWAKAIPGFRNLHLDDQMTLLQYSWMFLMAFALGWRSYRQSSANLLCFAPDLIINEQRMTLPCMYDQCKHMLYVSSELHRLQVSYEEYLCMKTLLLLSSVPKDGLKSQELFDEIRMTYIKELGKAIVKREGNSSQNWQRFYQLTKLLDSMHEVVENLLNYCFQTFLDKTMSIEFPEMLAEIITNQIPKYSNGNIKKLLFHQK
As to the kind of experiment: In Vitro GR Luciferase Reporter Assay (antagonist mode, CHO-K1-GR-MMTV-Luc reporter cells). Conditions: antagonist assay with 10 nM Dexamethasone, 18-24 hours. The class given is cell-based. The procedure, abridged:
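Antagonist mode: compounds (8 serial 1:5 dilutions) added to GR-MMTV-luciferase CHO-K1 reporter cells co-exposed to 10 nM dexamethasone final, in phenol red-free DMEM plus 10% CSS. After roughly 18-24 h at 37° C, OneGlo luminescence read and IC50 calculated.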
(In general: A reporter such as luciferase makes a cellular process visible.)
With `O=C(c1cc(C(F)(F)F)ccn1)[C@]12Cc3cnn(-c4ccc(F)cc4)c3C=C1CC[C@H](S(=O)(=O)c1cnn(C3CC3)n1)C2` [Example 73, ((4aS,6S)-6-((2-cyclopropyl-2H-1,2,3-triazol-4-yl)sulfonyl)-1-(4-fluorophenyl)-1,4,5,6,7,8-hexahydro-4aH-benzo[f]indazol-4a-yl)(4-(trifluoromethyl)pyridin-2-yl)methanone], the pIC50 (usually the negative decadic logarithm of the IC50, by convention in mol/L) is not below 7.00.
Regarding `O=C(c1ccc(Cl)cn1)[C@]12Cc3cnn(-c4ccc(F)cc4)c3C=C1CC[C@H](S(=O)(=O)c1ccccn1)C2` [Example 74, (5-chloropyridin-2-yl)((4aS,6S)-1-(4-fluorophenyl)-6-(pyridin-2-ylsulfonyl)-1,4,5,6,7,8-hexahydro-4aH-benzo[f]indazol-4a-yl)methanone], the pIC50 is not below 7.00.
On to `O=C(c1cc(C(F)(F)F)ccn1)[C@]12Cc3cnn(-c4ccc(F)cc4)c3C=C1CC[C@H](S(=O)(=O)c1cnn(CC(F)(F)F)c1)C2` [Example 75, ((4aS,6S)-1-(4-fluorophenyl)-6-((1-(2,2,2-trifluoroethyl)-1H-pyrazol-4-yl)sulfonyl)-1,4,5,6,7,8-hexahydro-4aH-benzo[f]indazol-4a-yl)(4-(trifluoromethyl)pyridin-2-yl)methanone], for which the pIC50 was not below 7.00.
The compound `CCn1cc(S(=O)(=O)[C@H]2CCC3=Cc4c(cnn4-c4ccc(F)cc4)C[C@]3(C(=O)c3cc(C(F)(F)F)ccn3)C2)cn1` [Example 76, ((4aS,6S)-6-((1-ethyl-1H-pyrazol-4-yl)sulfonyl)-1-(4-fluorophenyl)-1,4,5,6,7,8-hexahydro-4aH-benzo[f]indazol-4a-yl)(4-(trifluoromethyl)pyridin-2-yl)methanone] gave a pIC50 not below 7.00.
As for `CCn1ncc(S(=O)(=O)[C@H]2CCC3=Cc4c(cnn4-c4ccc(F)cc4)C[C@]3(C(=O)c3ccc(C(F)(F)F)cn3)C2)n1` [Example 77, ((4aS,6S)-6-((2-ethyl-2H-1,2,3-triazol-4-yl)sulfonyl)-1-(4-fluorophenyl)-1,4,5,6,7,8-hexahydro-4aH-benzo[f]indazol-4a-yl)(5-(trifluoromethyl)pyridin-2-yl)methanone], the pIC50 is not below 7.00.
In the case of `CN([C@H]1CCC2=Cc3c(cnn3-c3ccc(F)cc3)C[C@]2(C(=O)c2ccc(C3CC3)cn2)C1)S(=O)(=O)c1cnn(C)n1` [Example 78, N-((4aS,6S)-4a-(5-cyclopropylpicolinoyl)-1-(4-fluorophenyl)-4,4a,5,6,7,8-hexahydro-1H-benzo[f]indazol-6-yl)-N,2-dimethyl-2H-1,2,3-triazole-4-sulfonamide] it was not below 7.00; in that of `O=C(c1cc(C(F)(F)F)ccn1)[C@]12Cc3cnn(-c4ccc(F)cc4)c3C=C1CC[C@H](S(=O)(=O)c1cnn(CC3CC3)n1)C2` [Example 79, ((4aS,6S)-6-((2-(cyclopropylmethyl)-2H-1,2,3-triazol-4-yl)sulfonyl)-1-(4-fluorophenyl)-1,4,5,6,7,8-hexahydro-4aH-benzo[f]indazol-4a-yl)(4-(trifluoromethyl)pyridin-2-yl)methanone], not below 7.00; in that of `CN([C@H]1CCC2=Cc3c(cnn3-c3ccc(F)cc3)C[C@]2(C(=O)c2ccccn2)C1)S(=O)(=O)c1ccccc1` [Example 80, N-((4aS,6S)-1-(4-fluorophenyl)-4a-picolinoyl-4,4a,5,6,7,8-hexahydro-1H-benzo[f]indazol-6-yl)-N-methylbenzenesulfonamide], not below 7.00.
For the compound `CN([C@H]1CCC2=Cc3c(cnn3-c3ccc(F)cc3)C[C@]2(C(=O)c2ccccn2)C1)S(=O)(=O)c1cccc(Cl)c1` [Example 82, 3-chloro-N-((4aS,6S)-1-(4-fluorophenyl)-4a-picolinoyl-4,4a,5,6,7,8-hexahydro-1H-benzo[f]indazol-6-yl)-N-methylbenzenesulfonamide], the pIC50 was not below 7.00.
On to `CN([C@H]1CCC2=Cc3c(cnn3-c3ccc(F)cc3)C[C@]2(C(=O)c2ccccn2)C1)S(=O)(=O)c1cccc(C(F)(F)F)c1` [Example 83, N-((4aS,6S)-1-(4-fluorophenyl)-4a-picolinoyl-4,4a,5,6,7,8-hexahydro-1H-benzo[f]indazol-6-yl)-N-methyl-3-(trifluoromethyl)benzenesulfonamide], for which the negative-log IC50 (pIC50) is not below 7.00.
On to `CN([C@H]1CCC2=Cc3c(cnn3-c3ccc(F)cc3)C[C@]2(C(=O)c2ccccn2)C1)S(=O)(=O)c1cccnc1` [Example 84, N-((4aS,6S)-1-(4-fluorophenyl)-4a-picolinoyl-4,4a,5,6,7,8-hexahydro-1H-benzo[f]indazol-6-yl)-N-methylpyridine-3-sulfonamide], for which the pIC50 was not below 7.00.
In the case of `CN([C@H]1CCC2=Cc3c(cnn3-c3ccc(F)cc3)C[C@]2(C(=O)c2ccccn2)C1)S(=O)(=O)c1ccc(C(F)(F)F)cc1` [Example 85, N-((4aS,6S)-1-(4-fluorophenyl)-4a-picolinoyl-4,4a,5,6,7,8-hexahydro-1H-benzo[f]indazol-6-yl)-N-methyl-4-(trifluoromethyl)benzenesulfonamide], the negative logarithm of the IC50 (pIC50) was not below 7.00.
In turn, `CN([C@H]1CCC2=Cc3c(cnn3-c3ccc(F)cc3)C[C@]2(C(=O)c2cc(C(F)(F)F)ccn2)C1)S(=O)(=O)c1ccc(C(F)(F)F)cc1` [Example 86, N-((4aS,6S)-1-(4-fluorophenyl)-4a-(4-(trifluoromethyl)picolinoyl)-4,4a,5,6,7,8-hexahydro-1H-benzo[f]indazol-6-yl)-N-methyl-4-(trifluoromethyl)benzenesulfonamide] showed a pIC50 not below 7.00.
`CCn1cc(S(=O)(=O)N(C)[C@H]2CCC3=Cc4c(cnn4-c4ccc(F)cc4)C[C@]3(C(=O)c3cc(C(F)(F)F)ccn3)C2)cn1` [Example 87, 1-ethyl-N-((4aS,6S)-1-(4-fluorophenyl)-4a-(4-(trifluoromethyl)picolinoyl)-4,4a,5,6,7,8-hexahydro-1H-benzo[f]indazol-6-yl)-N-methyl-1H-pyrazole-4-sulfonamide] showed a pIC50 not below 7.00.
`CN(C(=O)c1ccccc1)[C@H]1CCC2=Cc3c(cnn3-c3ccc(F)cc3)C[C@]2(C(=O)c2ccccn2)C1` [Example 89, N-((4aS,6S)-1-(4-fluorophenyl)-4a-picolinoyl-4,4a,5,6,7,8-hexahydro-1H-benzo[f]indazol-6-yl)-N-methylbenzamide] had a pIC50 not below 7.00.
`CN(c1ccccc1)S(=O)(=O)[C@H]1CCC2=Cc3c(cnn3-c3ccc(F)cc3)C[C@]2(C(=O)c2ccccn2)C1` [Example 92, (4aS,6S)-1-(4-fluorophenyl)-N-methyl-N-phenyl-4a-picolinoyl-4,4a,5,6,7,8-hexahydro-1H-benzo[f]indazole-6-sulfonamide]: the negative-log IC50 (pIC50) was 6.00 to 7.00.
On to `CN([C@@H]1CCC2=Cc3c(cnn3-c3ccc(F)cc3)C[C@]2(C(=O)c2cc(C(F)(F)F)ccn2)C1)S(=O)(=O)c1cnn(C)c1` [Example 95, N-((4aS,6R)-1-(4-fluorophenyl)-4a-(4-(trifluoromethyl)picolinoyl)-4,4a,5,6,7,8-hexahydro-1H-benzo[f]indazol-6-yl)-N,1-dimethyl-1H-pyrazole-4-sulfonamide], for which the pIC50 was not below 7.00.
`CN(C(=O)c1cnn(C)c1)[C@H]1CCC2=Cc3c(cnn3-c3ccc(F)cc3)C[C@]2(C(=O)c2cc(C(F)(F)F)ccn2)C1` [Example 96, N-((4aS,6S)-1-(4-fluorophenyl)-4a-(4-(trifluoromethyl)picolinoyl)-4,4a,5,6,7,8-hexahydro-1H-benzo[f]indazol-6-yl)-N,1-dimethyl-1H-pyrazole-4-carboxamide] showed a pIC50 not below 7.00.
In the case of `CC(C)n1cc(S(=O)(=O)N(C)[C@H]2CCC3=Cc4c(cnn4-c4ccc(F)cc4)C[C@]3(C(=O)c3cc(C(F)(F)F)ccn3)C2)cn1` [Example 97, N-((4aS,6S)-1-(4-fluorophenyl)-4a-(4-(trifluoromethyl)picolinoyl)-4,4a,5,6,7,8-hexahydro-1H-benzo[f]indazol-6-yl)-1-isopropyl-N-methyl-1H-pyrazole-4-sulfonamide], the pIC50 is not below 7.00.
Turning to `CN([C@H]1CCC2=Cc3c(cnn3-c3ccc(F)cc3)C[C@]2(C(=O)c2cc(C(F)(F)F)ccn2)C1)S(=O)(=O)c1cnn(C)c1` [Example 100, N-((4aS,6S)-1-(4-fluorophenyl)-4a-(4-(trifluoromethyl)picolinoyl)-4,4a,5,6,7,8-hexahydro-1H-benzo[f]indazol-6-yl)-N,1-dimethyl-1H-pyrazole-4-sulfonamide], the pIC50 is 6.00 to 7.00.
Compound `CN(c1cnn(C)c1)S(=O)(=O)[C@H]1CCC2=Cc3c(cnn3-c3ccc(F)cc3)C[C@]2(C(=O)c2cc(C(F)(F)F)ccn2)C1` [Example 101, (4aS,6S)-1-(4-fluorophenyl)-N-methyl-N-(1-methyl-1H-pyrazol-4-yl)-4a-(4-(trifluoromethyl)picolinoyl)-4,4a,5,6,7,8-hexahydro-1H-benzo[f]indazole-6-sulfonamide] gave a negative-log IC50 (pIC50) of 6.00 to 7.00.
